According to patent US6235891A, “Glucocorticoid receptor agonist and decreased PP5” (South Alabama Medical Science Foundation, priority 1999, dated 2001):

Assays:
Assay type in all cases: cell-based, human
A549 cells [1] = experiment: [3H]-thymidine incorporation (DNA synthesis) in A549 cells; settings: 300 nM, all 5 days
Method: Cells were pulse-labeled with [^3 H]-thymidine for 5 hours at intervals over the next five days. Cells were lysed and [^3 H]-thymidine incorporation (indicative of DNA synthesis) was determined by liquid scintillation counting.
At timed intervals during the next 5 days, cells were pulse-labeled with [^3 H]-thymidine (0.5 μCi/ml) for 5 hours. […] The results given are the mean of three independent experiments.

PP5 mRNA = experiment: Northern blot analysis of PP5 mRNA expression in A549 cells; settings: doses of 25 to 500 nM
Description: The oligonucleotides shown in Table 1 were designed using the Genbank sequences HSSERTHRP (Genbank accession number X92121), HSRNAPPP5 (Genbank accession number X89416) and PPP5C (Genbank accession number U25174), synthesized and tested for inhibition of PP5 mRNA expression in A549 cells using a Northern blot assay. All oligonucleotides shown in Table 1 are chimeric oligonucleotides with central 2'-deoxy "gaps," which have phosphorothioate backbones, flanked on both sides by 2'-methoxyethoxy (2'-MOE) "wings" (shown in bold), which have phosphodiester backbones. All cytosines in the 2'-MOE wings are 5-methylcytosines.
In the initial screen, A549 cells were treated with oligonucleotides at a concentration of 300 nM oligonucleotide for four hours in the presence of […] lipofectin. Results were normalized and expressed as a percent of control. The effect of each oligonucleotide on levels of PP5 mRNA, expressed as approximate percent inhibition compared to control, is shown in Table 1. In this initial screen, oligonucleotides giving a reduction of PP5 mRNA of approximately 50% or greater were considered active. […] These sequences (SEQ ID NO: 1, 2, 3, 4, 6, 7 and 12, respectively, SEQ ID Nos shown in bold in Table 1) are therefore preferred.
These oligonucleotides were tested for their ability to reduce PP5 mRNA levels in A549 cells, using oligonucleotide doses of 25 to 500 nM.
The human lung tumor cell line A549 was obtained from the American Type Culture Collection (Rockville Md.) and were grown in DMEM (Gibco BRL, Gaithersburg Md.), supplemented with 10% fetal calf. Cells were seeded on 60 mm plates. When they reached 70% confluency, they were washed with DMEM and 1 ml of DMEM containing 15 μg/ml DOTMA/DOPE (Lipofectin®, GIBCO-BRL) and oligonucleotide at desired concentration was added. Duplicate dishes were used for each treatment condition. After 4 hours of treatment at 37°, cells were washed and cultured in fresh DMEM containing 10% fetal bovine serum for an additional 17 hours. Cells were then harvested and total RNA was extracted with TRIzol Reagent (GIBCO-BRL) according to manufacturer's protocol. Total RNA (20 μg) was fractionated on a 1% agarose gel containing formaldehyde, and transferred to a DURLON-UV (Stratagene) nylon membrane. Following UV crosslinking, the filters were hybridized with the appropriate protein phosphatase probe. The ^32 P-labeled human PP cDNA probes are generated with DECAPrime® DNA Labeling Kit (Ambion) according to the manufacturer's protocol. Hybridization was performed in a hybridization solution containing 50% formamide at 42° for 16 hours. This was followed by two low stringency washes (2×SSC) at room temperature and two high stringency washes (0.1×SSC/0.5% SDS) at 55° C. Hybridization signals were visualized by autoradiography, and filters were then stripped and reprobed with a ^32 P-labeled glyceraldehyde-3-phosphate dehydrogenase (GAPDH) probe to confirm equal loading. The densities of hybridization signals were measured with the NIH Image program (ImagePC).
The cells were harvested, and total RNA was extracted with TRIzol® Reagent according to the methods of the manufacturer. Total RNA (20 μg) was fractionated on 1% agarose gels containing formaldehyde and transferred to DURLON-UV nylon membranes (Stratagene). Following UV cross-linking, the filters were hybridized with a [α^32 P]probe for human PP5. The human PP5 cDNA probe was generated from the full length coding region of PP5 and [α^32 P]-dATP was labeled with DECAprime® DNA Labeling Kit according to the manufacturer's protocol. Hybridization was performed in the presence of 50% formamide, 0.1 M Pipes, 0.8 M NaCl, 5×Denhardt's solution, 100 μg/ml denatured herring sperm DNA, 1×10^6 cpm/ml [α-^32 P]-labeled probe and 10% dextran sulfate at 42° C. for 16 hours. Following hybridization, the membrane was subjected to two low stringency washes (2×SSC) at room temperature and then two high stringency washes (0.1×SSC/0.5% SDS) at 55° C. […]

A549 cells [2] = experiment: A549 cell proliferation (viable cell counts); settings: 300 nM, all 5 days
Method: A549 cells were treated with ISIS 15534 or its scrambled control, ISIS 15521 at a concentration of 300 nM. Each day for the next 5 days, viable cells were counted.
A549 cells were seeded in 12-well tissue culture plates at about 50% confluence in DMEM containing 10% fetal bovine serum. The next day, cells were treated with the PP5-specific antisense oligonucleotide, ISIS 15534, or its scrambled control, ISIS 15521, at a final concentration of 300 nM as described in Example 7. On each of the following 5 days, cultures from three wells of each treatment gruop were trypsinized, collected and counted. Cell viability was determined by trypan blue staining, and the results given are the mean of three independent experiments.
A549 cells were seeded in 12-well tissue culture plates at a density of 5.0×10^4 cell/dish. On the next day, the cells were treated with PP5 specific antisense oligonucleotides (ISIS 15534) or the scrambled mismatch control (ISIS 15521) at a final concentration of 300 nM as described above. On each of the next five days, the cell cultures were treated briefly with trypsin to detach the cells from the dish (three wells from each test group). The number of cells was then determined by counting using a hemacytometer. Cell viability was determined with trypan blue staining. The percentage of viable cells was calculated by dividing the number of cells excluding trypan blue by the total number of cells, and the results are reported as the mean +/- SD of data collected from three independent experiments.
The antiproliferative effect of dexamethasone correlates with the presence of wild type p53 and the expression of p21^Waf1/Cip1 mRNA. Referring to FIGS. 1A-1C, the effect of dexamethasone on cell proliferation in p53-defective T-24 human bladder carcinoma, p53-null TR9 human fibroblasts (Webster et al. 1993; Maiyar et al. 1996), and p53 wild-type A549 human lung carcinoma cells was determined by treating cells in log-phase growth with a single dose of 100 nM dexamethasone and counting the number of cells in treated (.cndot.) and untreated (.box-solid.) cultures for six consecutive days following treatment. Each point represents the mean of triplicate dishes with error bars representing SE. Under similar conditions, treatment with ISIS 15534, a potent inhibitor of PP5 gene expression, inhibited growth in A459 but not T-24 or TR9 cells (Zuo et al. 1998). Referring to FIG. 1D, a comparison of p21^Waf1/Cip1 (p21) and serum glucocorticoid inducible protein kinase (sgk) mRNA levels in p53 competent (Lanes 3, 4) and p53 deficient (Lanes 1, 2, 5, 6) cell cultures after dexamethasone treatment is shown. Cell cultures in logphase growth were treated with 100 nM dexamethasone (+) or vehicle alone as a control (-). After 24 hours total mRNA was prepared and analyzed for p21 and sgk mRNA levels by Northern analysis.

ISIS 15521: mismatch (scrambled) control oligonucleotide, phosphodiester wings, phosphorothioate gap; GTGCGATCGTTGCGGTTAGC, SEQ ID NO: 14 (sugars by position and backbone not given here; phosphodiester wings, phosphorothioate gap) [reference compound]
[3H]-thymidine incorporation relative to untreated control (A549 cells [1]): approximately equivalent to untreated control
Inhibition of PP5 mRNA levels at any of the doses tested (PP5 mRNA): ≤ 20%
Proliferation relative to untreated control (A549 cells [2]): approximately equivalent to untreated control
